The assay is described as follows: Clinical comparison of patient groups: plasma MG, D-lactate and HbA1c in type 2 diabetic subjects receiving low or high daily dosages of metformin. The class given is in vivo, human. To be noted: for DL (D-lactate) / HbA1c / MG (plasma methylglyoxal level): diabetic subjects. From the text: The differences noted above are shown in the following summary of clinical results utilizing patient groups of individuals free of diabetes, those having diabetes but receiving no metformin, those having diabetes and receiving one gram or less of metformin daily and those receiving more than a gram of metformin daily, respectively. In Table 1, the number of patients in each group is noted as are the levels of plasma MG, DL(D-lactate) and […] (HbA1c).

Entries after “also recorded” stand apart in the source; their conditions may differ. Marks after values point to notes of the source that are not given here.

For `CN(C)C(=N)N=C(N)N` [Metformin, N,N-dimethylimidocarbonimide diamide], where the note is “metformin >1 g/day, n=13”, the “DL (D-lactate)” value is reported as 13.4 ± 4.6^c μmol/l, the HbA1c is 8.3 ± 1.0% and the “MG (plasma methylglyoxal level)” value was 158.4 ± 44.2^b nmol/l. Where the note is “metformin ≦1 g/day, n=17”, the “DL (D-lactate)” value is 13.8 ± 7.7^c μmol/l, the HbA1c was found to be 8.0 ± 1.1% and the “MG (plasma methylglyoxal level)” value came out at 210.9 ± 51.0 nmol/L. In addition, where the note is “group taking high dosages of metformin, versus low dosage group and diabetics without metformin”, the “plasma level of MG, result in words” value was “significant lowering of plasma levels of MG; also recorded: significantly lower plasma level of MG”. Further, for the setting “high versus low dosage groups of metformin”, the “difference in glycemic control between high and low dosages” value is “little difference in glycemic control”. In addition, the “levels of D-lactate, result in words” value (metformin administration versus diabetic control group receiving no metformin, no significant difference between high and low dosages) is “increased”.

(Values after patent publication US20010031790A1, “Treatment for complications of type 2 diabetes” (priority 1999, published 2001).)
